Calls of active or inactive are those of the source. The calls are words filed in the database; no cut-off is given here.
Legend:
in vitro = settings: CD1, mouse, liver microsomes
[1] = Drug concentration in ddY mouse brain at 30 mg/kg, po measured after 3 hrs by LC-MS/MS analysis; type: ADME, organism-based; settings: read-out: Ct
[2] = Drug concentration in ddY mouse plasma at 30 mg/kg, po measured after 3 hrs by LC-MS/MS analysis; type: ADME, organism-based
[3] = […], ratio of drug concentration in brain to plasma at steady state in ddY mouse at 30 mg/kg, po by LC-MS/MS analysis; type: ADME, organism-based
Mus musculus [4] = assay: In vivo modulatory activity of gamma secretase in ddY mouse assessed as reduction in Abeta42 levels in plasma at 30 mg/kg, po measured after 3 hrs by ELISA relative to control; type: functional
[5] = Ratio of drug concentration in ddY mouse brain to IC50 for gamma secretase in human SKNBE2 cells assessed as decrease in Abeta42 levels incubated for 6 hrs by sandwich ELISA; type: ADME, cell-based
Mus musculus [6] = assay: In vivo modulatory activity of gamma secretase in ddY mouse assessed as reduction in Abeta42 levels in brain at 30 mg/kg, po measured after 3 hrs by ELISA relative to control; type: functional
Gamma-secretase = assay: Modulatory activity of gamma secretase in human SKNBE2 cells assessed as decrease in Abeta42 levels incubated for 6 hrs by sandwich ELISA; type: cell-based
CYP3A4 [7] = target: T1, CYP3A4 (Homo sapiens, UniProt P08684); assay: Inhibition of CYP3A4 in human liver microsomes assessed as residual activity at 5 uM using midazolam as substrate measured after 20 mins by LC-MS/MS analysis relative to control; type: ADME; settings: probe midazolam, read-out: Activity
T1 sequence (P08684 whole entry): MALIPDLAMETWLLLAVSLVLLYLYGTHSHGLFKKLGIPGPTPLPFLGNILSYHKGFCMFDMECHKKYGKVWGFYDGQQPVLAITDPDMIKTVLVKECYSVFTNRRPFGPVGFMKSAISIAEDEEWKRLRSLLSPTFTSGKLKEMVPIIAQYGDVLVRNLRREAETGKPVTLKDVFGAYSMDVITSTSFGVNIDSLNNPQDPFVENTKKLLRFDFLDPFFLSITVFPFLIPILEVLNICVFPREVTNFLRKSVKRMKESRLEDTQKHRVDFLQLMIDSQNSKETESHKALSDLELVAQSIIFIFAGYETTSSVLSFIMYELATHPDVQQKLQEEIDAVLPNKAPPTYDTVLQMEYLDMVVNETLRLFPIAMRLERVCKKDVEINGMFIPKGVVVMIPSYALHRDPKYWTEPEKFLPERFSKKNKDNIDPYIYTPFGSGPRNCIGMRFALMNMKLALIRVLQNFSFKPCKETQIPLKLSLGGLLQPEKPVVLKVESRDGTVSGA

CYP3A4 [8] = target: T1, CYP3A4; assay: Inhibition of CYP3A4 in human liver microsomes assessed as residual activity at 5 uM using midazolam as substrate preincubated with enzyme for 30 mins followed by incubation with substrate for 20 mins by LC-MS/MS analysis relative to control; type: ADME; settings: probe midazolam, read-out: Activity
[9] = target: Gamma-secretase (Homo sapiens) (UniProt Q96BI3+Q9NZ42+Q8WW43+P49768+Q92542+P49810); assay: Inhibition of gamma-secretase in human H4 cells overexpressing human wild-type APP assessed as beta-CTF level incubated for 24 hrs by ELISA; type: cell-based

SMILES: CCNC(=O)c1ccc(-c2c(CO)nc3c(OCc4ccccc4)cccn23)cn1
- microsomal CLint at 0.75 h, 0.2 µM (in vitro): 75.7 µL/min/mg

SMILES: CCNC(=O)c1ccc(-c2c(C)nc3c(OCc4ccc(C)cc4C)cccn23)cn1
- microsomal CLint at 0.75 h, 0.2 µM (in vitro): 652 µL/min/mg

SMILES: CCNC(=O)c1ccc(-c2c(C)nc3c(OCc4ccccc4F)cccn23)cn1.Cl
- concentration at 3 h [1]: 750 nM
- concentration at 3 h [2]: 2.7 µM
- Kp [3]: 0.27
- inhibition in vivo at 30 mg/kg (Mus musculus [4]): 16%
- Ratio [5]: 5 nmol/g/uM
- inhibition in vivo at 30 mg/kg (Mus musculus [6]): 6%
- microsomal CLint at 0.75 h, 0.2 µM (in vitro): 228 µL/min/mg
- IC50 (Gamma-secretase): 150 nM

SMILES: CCNC(=O)c1ccc(-c2c(C)nc3c(OCc4cccc(C(=O)N(C)C)c4)cccn23)cn1
- microsomal CLint at 0.75 h, 0.2 µM (in vitro): 77.9 µL/min/mg
- IC50 (Gamma-secretase): > 10000 nM

SMILES: CCNC(=O)c1ccc(-c2c(C)nc3c(OCc4ccccc4)cccn23)cn1
- microsomal CLint at 0.75 h, 0.2 µM (in vitro): 324 µL/min/mg
- IC50 (Gamma-secretase): 580 nM

SMILES: CCNC(=O)c1ccc(-c2c(COC)nc3c(OCc4ccccc4)cccn23)cn1
- microsomal CLint at 0.75 h, 0.2 µM (in vitro): 350 µL/min/mg
- IC50 (Gamma-secretase): 6200 nM

SMILES: CCNC(=O)c1ccc(-c2c(C)nc3c(OCc4cccc(F)c4)cccn23)cn1
- microsomal CLint at 0.75 h, 0.2 µM (in vitro): 295 µL/min/mg
- IC50 (Gamma-secretase): 240 nM

SMILES: CCNC(=O)c1ccc(-c2c(C)nc3c(OCc4ccc(-n5cncn5)cc4)cccn23)cn1
- microsomal CLint at 0.75 h, 0.2 µM (in vitro): 49.9 µL/min/mg

SMILES: CCNC(=O)c1ccc(-c2c(C#N)nc3c(OCc4ccccc4)cccn23)cn1
- microsomal CLint at 0.75 h, 0.2 µM (in vitro): 318 µL/min/mg

SMILES: CCNC(=O)c1ccc(-c2c(C)nc3c(OCc4ccccc4-c4ccccc4)cccn23)cn1
- microsomal CLint at 0.75 h, 0.2 µM (in vitro): > 1000 µL/min/mg
- IC50 (Gamma-secretase): 390 nM

SMILES: CCN1CCc2cc(-c3c(C)nc4c(OCc5ccccc5)cccn34)ccc2C1=O
- IC50 (Gamma-secretase): > 50000 nM

SMILES: CCN1C(=O)c2ccc(-c3c(C)nc4c(OCc5ccccc5)cccn34)cc2C1(C)C
- microsomal CLint at 0.75 h, 0.2 µM (in vitro): > 1000 µL/min/mg
- IC50 (Gamma-secretase): > 2000 nM

SMILES: CCN1Cc2cc(-c3c(C)nc4c(OCc5ccccc5)cccn34)ccc2C1=O.Cl
- Kp [3]: 0.72
- Ratio [5]: 1.8 nmol/g/uM
- inhibition in vivo at 30 mg/kg (Mus musculus [6]): 2%

SMILES: CCNC(=O)c1ccc(-c2c(C)nc3c(OCCc4ccccc4)cccn23)cn1
- microsomal CLint at 0.75 h, 0.2 µM (in vitro): > 1000 µL/min/mg
- IC50 (Gamma-secretase): 1100 nM

SMILES: CCNC(=O)c1ccc(-c2c(C)nc3c(OCc4ccccc4)cccn23)cc1F
- microsomal CLint at 0.75 h, 0.2 µM (in vitro): 500 µL/min/mg
- IC50 (Gamma-secretase): > 50000 nM

SMILES: CCNC(=O)c1ccc(-c2c(C)nc3c(OCc4ccc(C)cc4)cccn23)cn1
- microsomal CLint at 0.75 h, 0.2 µM (in vitro): 438 µL/min/mg
- IC50 (Gamma-secretase): 370 nM

SMILES: CCNC(=O)c1ccc(-c2c(C)nc3c(OCc4cccc(-c5ccccc5)c4)cccn23)cn1.Cl
- concentration at 3 h [1]: 770 nM
- concentration at 3 h [2]: 6.6 µM
- Kp [3]: 0.12
- Ratio [5]: 12 nmol/g/uM
- inhibition in vivo at 30 mg/kg (Mus musculus [6]): 6%
- microsomal CLint at 0.75 h, 0.2 µM (in vitro): 367 µL/min/mg
- IC50 (Gamma-secretase): 62 nM

SMILES: CCNC(=O)c1ccc(-c2c(C)nc3c(OCc4c(C)cc(C)cc4C)cccn23)cn1
- microsomal CLint at 0.75 h, 0.2 µM (in vitro): > 1000 µL/min/mg
- IC50 (Gamma-secretase): 170 nM

SMILES: CCNC(=O)c1ccc(-c2c(C)nc3c(OCc4ccc(-c5ccccc5)cc4)cccn23)cn1.Cl
- concentration at 3 h [1]: 4600 nM
- activity at 20 min, 5 µM (CYP3A4 [7]): 101%
- concentration at 3 h [2]: 10 µM
- activity at 20 min, 5 µM (CYP3A4 [8]): 83%
- Kp [3]: 0.45
- inhibition in vivo at 30 mg/kg (Mus musculus [4]): 66%
- inhibition [9]: inactive
- Ratio [5]: 51 nmol/g/uM
- inhibition in vivo at 30 mg/kg (Mus musculus [6]): 36%
- microsomal CLint at 0.75 h, 0.2 µM (in vitro): 84.7 µL/min/mg
- IC50 (Gamma-secretase): 91 nM

Source: ChEMBL document CHEMBL4609991, “Discovery of N-ethylpyridine-2-carboxamide derivatives as a novel scaffold for orally active γ-secretase modulators” (Bioorg Med Chem, 2020)
